Test results reported in PubChem BioAssay (NCI).
Values joined by “and” are separate entries in the source; they are usually repeats but may differ in a detail not shown here. Identical values can stand only once.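 A five-concentration, 48-hour dose response in 96-well plates underlies each endpoint, interpolated linearly between surrounding concentrations. GI50: concentration for 50% inhibition of growth. TGI: total growth inhibition.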

Columns and labels:
Test in all cases: inhibition of tumour cell growth, NCI panel, 48 h
NCI-H226 lung = test system: NCI-H226 lung
HT29 colon = test system: HT29 colon
HCC-2998 colon = test system: HCC-2998 colon
KM12 colon = test system: KM12 colon
SF-268 CNS = test system: SF-268 CNS
NCI/ADR-RES ovarian = test system: NCI/ADR-RES ovarian
COLO 205 colon = test system: COLO 205 colon
SK-OV-3 ovarian = test system: SK-OV-3 ovarian
NCI-H23 lung = test system: NCI-H23 lung
UO-31 renal = test system: UO-31 renal
T-47D breast = test system: T-47D breast
IGROV1 ovarian = test system: IGROV1 ovarian
HL-60(TB) leukemia = test system: HL-60(TB) leukemia
SF-295 CNS = test system: SF-295 CNS
SR leukemia = test system: SR leukemia
SW-620 colon = test system: SW-620 colon
LOX IMVI melanoma = test system: LOX IMVI melanoma
RPMI-8226 leukemia = test system: RPMI-8226 leukemia
TK-10 renal = test system: TK-10 renal
EKVX NSCLC = test system: EKVX NSCLC
SN12C renal = test system: SN12C renal
SNB-19 CNS = test system: SNB-19 CNS
K-562 leukemia = test system: K-562 leukemia
SF-539 CNS = test system: SF-539 CNS
NCI-H522 lung = test system: NCI-H522 lung
OVCAR-3 ovarian = test system: OVCAR-3 ovarian
HOP-92 NSCLC = test system: HOP-92 NSCLC
A549 NSCLC = test system: A549 NSCLC
MALME-3M melanoma = test system: MALME-3M melanoma
HCT-15 colon = test system: HCT-15 colon
CCRF-CEM leukemia = test system: CCRF-CEM leukemia
MDA-MB-435 = test system: MDA-MB-435
MOLT-4 leukemia = test system: MOLT-4 leukemia
M14 melanoma = test system: M14 melanoma
OVCAR-4 ovarian = test system: OVCAR-4 ovarian
CAKI-1 renal = test system: CAKI-1 renal
MDA-MB-231 breast = test system: MDA-MB-231 breast
NCI-H460 lung = test system: NCI-H460 lung
A498 renal = test system: A498 renal
SNB-75 CNS = test system: SNB-75 CNS
BT-549 breast = test system: BT-549 breast
SK-MEL-5 melanoma = test system: SK-MEL-5 melanoma
MCF7 breast = test system: MCF7 breast
U251 CNS = test system: U251 CNS
HS 578T breast = test system: HS 578T breast
SK-MEL-2 melanoma = test system: SK-MEL-2 melanoma
HCT-116 colon = test system: HCT-116 colon
DU-145 prostate = test system: DU-145 prostate
786-0 renal = test system: 786-0 renal
UACC-62 melanoma = test system: UACC-62 melanoma
PC-3 prostate = test system: PC-3 prostate
OVCAR-8 ovarian = test system: OVCAR-8 ovarian
HOP-62 NSCLC = test system: HOP-62 NSCLC
OVCAR-5 ovarian = test system: OVCAR-5 ovarian
RXF 393 renal = test system: RXF 393 renal
ACHN renal = test system: ACHN renal
UACC-257 melanoma = test system: UACC-257 melanoma
SK-MEL-28 melanoma = test system: SK-MEL-28 melanoma
MDA-N = test system: MDA-N

Nc1ccc(/C=C/c2ccc3ncccc3c2)cc1
GI50 (NCI-H226 lung): > 100 µM | TGI (NCI-H226 lung): > 100 µM | GI50 (HT29 colon): > 100 µM | TGI (HT29 colon): > 100 µM | GI50 (HCC-2998 colon): > 100 µM | TGI (HCC-2998 colon): > 100 µM | GI50 (KM12 colon): 49.1 µM | TGI (KM12 colon): > 100 µM | GI50 (SF-268 CNS): > 100 µM | TGI (SF-268 CNS): > 100 µM | GI50 (NCI/ADR-RES ovarian): > 100 µM | TGI (NCI/ADR-RES ovarian): > 100 µM | GI50 (COLO 205 colon): > 100 µM | TGI (COLO 205 colon): > 100 µM | GI50 (SK-OV-3 ovarian): > 100 µM | TGI (SK-OV-3 ovarian): > 100 µM | GI50 (NCI-H23 lung): > 100 µM | TGI (NCI-H23 lung): > 100 µM | GI50 (UO-31 renal): 2320 nM | TGI (UO-31 renal): > 100 µM | GI50 (T-47D breast): > 100 µM | TGI (T-47D breast): > 100 µM | GI50 (IGROV1 ovarian): > 100 µM | TGI (IGROV1 ovarian): > 100 µM | GI50 (HL-60(TB) leukemia): 1520 nM | TGI (HL-60(TB) leukemia): > 100 µM | GI50 (SF-295 CNS): 70.3 µM | TGI (SF-295 CNS): > 100 µM | GI50 (SR leukemia): > 100 µM | TGI (SR leukemia): > 100 µM | GI50 (SW-620 colon): > 100 µM | TGI (SW-620 colon): > 100 µM | GI50 (LOX IMVI melanoma): 75 µM | TGI (LOX IMVI melanoma): > 100 µM | GI50 (RPMI-8226 leukemia): 6.89 µM | TGI (RPMI-8226 leukemia): > 100 µM | GI50 (TK-10 renal): 86.5 µM | TGI (TK-10 renal): > 100 µM | GI50 (EKVX NSCLC): 31.7 µM | TGI (EKVX NSCLC): > 100 µM | GI50 (SN12C renal): > 100 µM | TGI (SN12C renal): > 100 µM | GI50 (SNB-19 CNS): > 100 µM | TGI (SNB-19 CNS): > 100 µM | GI50 (K-562 leukemia): > 100 µM | TGI (K-562 leukemia): > 100 µM | GI50 (SF-539 CNS): > 100 µM | TGI (SF-539 CNS): > 100 µM | GI50 (NCI-H522 lung): 19.9 µM | TGI (NCI-H522 lung): > 100 µM | GI50 (OVCAR-3 ovarian): > 100 µM | TGI (OVCAR-3 ovarian): > 100 µM | GI50 (HOP-92 NSCLC): 12.9 µM | TGI (HOP-92 NSCLC): > 100 µM | GI50 (A549 NSCLC): > 100 µM | TGI (A549 NSCLC): > 100 µM | GI50 (MALME-3M melanoma): > 100 µM | TGI (MALME-3M melanoma): > 100 µM | GI50 (HCT-15 colon): > 100 µM | TGI (HCT-15 colon): > 100 µM | GI50 (CCRF-CEM leukemia): 821 nM | TGI (CCRF-CEM leukemia): > 100 µM | GI50 (MDA-MB-435): > 100 µM | TGI (MDA-MB-435): > 100 µM | GI50 (MOLT-4 leukemia): > 100 µM | TGI (MOLT-4 leukemia): > 100 µM | GI50 (M14 melanoma): > 100 µM | TGI (M14 melanoma): > 100 µM | GI50 (OVCAR-4 ovarian): > 100 µM | TGI (OVCAR-4 ovarian): > 100 µM | TGI (CAKI-1 renal): > 100 µM | GI50 (MDA-MB-231 breast): 2090 nM | TGI (MDA-MB-231 breast): > 100 µM | GI50 (NCI-H460 lung): > 100 µM | TGI (NCI-H460 lung): > 100 µM | GI50 (A498 renal): > 100 µM | TGI (A498 renal): > 100 µM | GI50 (SNB-75 CNS): 37.1 µM | TGI (SNB-75 CNS): > 100 µM | GI50 (BT-549 breast): 5.29 µM | TGI (BT-549 breast): > 100 µM | GI50 (SK-MEL-5 melanoma): > 100 µM | TGI (SK-MEL-5 melanoma): > 100 µM | GI50 (MCF7 breast): > 100 µM | TGI (MCF7 breast): > 100 µM | GI50 (U251 CNS): > 100 µM | TGI (U251 CNS): > 100 µM | GI50 (HS 578T breast): > 100 µM | TGI (HS 578T breast): > 100 µM | GI50 (SK-MEL-2 melanoma): > 100 µM | TGI (SK-MEL-2 melanoma): > 100 µM | GI50 (HCT-116 colon): > 100 µM | TGI (HCT-116 colon): > 100 µM | GI50 (DU-145 prostate): > 100 µM | TGI (DU-145 prostate): > 100 µM | GI50 (786-0 renal): > 100 µM | TGI (786-0 renal): > 100 µM | GI50 (UACC-62 melanoma): > 100 µM | TGI (UACC-62 melanoma): > 100 µM | GI50 (PC-3 prostate): 7.29 µM | TGI (PC-3 prostate): > 100 µM | GI50 (OVCAR-8 ovarian): > 100 µM | TGI (OVCAR-8 ovarian): > 100 µM | GI50 (HOP-62 NSCLC): > 100 µM | TGI (HOP-62 NSCLC): > 100 µM | GI50 (OVCAR-5 ovarian): > 100 µM | TGI (OVCAR-5 ovarian): > 100 µM | GI50 (RXF 393 renal): 73.2 µM | TGI (RXF 393 renal): > 100 µM | GI50 (ACHN renal): > 100 µM | TGI (ACHN renal): > 100 µM | GI50 (UACC-257 melanoma): > 100 µM | TGI (UACC-257 melanoma): > 100 µM | GI50 (SK-MEL-28 melanoma): > 100 µM | TGI (SK-MEL-28 melanoma): > 100 µM

COC(=O)c1cc2ccc(O)c(O)c2cn1
TGI (NCI-H226 lung): 36.8 µM | GI50 (HCC-2998 colon): > 100 µM | TGI (HCC-2998 colon): > 100 µM | TGI (KM12 colon): 32 µM | TGI (SF-268 CNS): 30.8 µM | GI50 (NCI/ADR-RES ovarian): 20.4 µM | TGI (NCI/ADR-RES ovarian): 46.1 µM | TGI (COLO 205 colon): 33.1 µM | TGI (SK-OV-3 ovarian): 92.3 µM | TGI (NCI-H23 lung): 32 µM | TGI (UO-31 renal): 32.2 µM | TGI (IGROV1 ovarian): 33.2 µM | TGI (HL-60(TB) leukemia): > 100 µM | TGI (SF-295 CNS): 33.6 µM | TGI (SW-620 colon): 32.4 µM | GI50 (LOX IMVI melanoma): 1.57 µM | TGI (LOX IMVI melanoma): 5.43 µM and 3.31 µM | TGI (RPMI-8226 leukemia): > 100 µM | TGI (TK-10 renal): 34.6 µM | TGI (EKVX NSCLC): 38.4 µM | GI50 (SN12C renal): 5.22 µM | TGI (SN12C renal): 17.3 µM | TGI (K-562 leukemia): 8.16 µM | TGI (SF-539 CNS): 33.5 µM | TGI (NCI-H522 lung): 37.9 µM | TGI (OVCAR-3 ovarian): 30.8 µM | TGI (HOP-92 NSCLC): 26.3 µM | TGI (A549 NSCLC): 63.1 µM | TGI (MALME-3M melanoma): 27.5 µM | TGI (HCT-15 colon): 40.4 µM | GI50 (CCRF-CEM leukemia): 4620 nM | TGI (CCRF-CEM leukemia): > 100 µM | TGI (MDA-MB-435): 3.25 µM and 3.21 µM | GI50 (MOLT-4 leukemia): 4.6 µM | TGI (MOLT-4 leukemia): > 100 µM | TGI (M14 melanoma): 34.6 µM | TGI (OVCAR-4 ovarian): 21.7 µM | TGI (CAKI-1 renal): 25.7 µM | TGI (MDA-MB-231 breast): 25.2 µM | TGI (NCI-H460 lung): 37.4 µM | TGI (SNB-75 CNS): 36.6 µM | GI50 (MDA-N): 1890 nM | TGI (MDA-N): 2.89 µM and 3.69 µM | TGI (SK-MEL-5 melanoma): 28.2 µM | TGI (MCF7 breast): 8.1 µM | GI50 (U251 CNS): 16.9 µM | TGI (U251 CNS): 31.2 µM | TGI (SK-MEL-2 melanoma): 34.3 µM | TGI (HCT-116 colon): 29.2 µM | TGI (DU-145 prostate): > 100 µM | TGI (786-0 renal): 19.7 µM | GI50 (UACC-62 melanoma): 14.2 µM | TGI (UACC-62 melanoma): 6.16 µM and 30.9 µM | TGI (PC-3 prostate): 56.4 µM | TGI (OVCAR-8 ovarian): 28.6 µM | TGI (HOP-62 NSCLC): 36.2 µM | TGI (OVCAR-5 ovarian): 35 µM | TGI (RXF 393 renal): 32.7 µM | TGI (ACHN renal): 43.6 µM | TGI (UACC-257 melanoma): 29.6 µM | TGI (SK-MEL-28 melanoma): 35.6 µM
